SMILES strings stand for the structures.

The test addresses T1, human RXFP1 (Homo sapiens, UniProt Q9HBX9).
T1 construct: expressed in transfected cells
T1 sequence (Q9HBX9 1-757): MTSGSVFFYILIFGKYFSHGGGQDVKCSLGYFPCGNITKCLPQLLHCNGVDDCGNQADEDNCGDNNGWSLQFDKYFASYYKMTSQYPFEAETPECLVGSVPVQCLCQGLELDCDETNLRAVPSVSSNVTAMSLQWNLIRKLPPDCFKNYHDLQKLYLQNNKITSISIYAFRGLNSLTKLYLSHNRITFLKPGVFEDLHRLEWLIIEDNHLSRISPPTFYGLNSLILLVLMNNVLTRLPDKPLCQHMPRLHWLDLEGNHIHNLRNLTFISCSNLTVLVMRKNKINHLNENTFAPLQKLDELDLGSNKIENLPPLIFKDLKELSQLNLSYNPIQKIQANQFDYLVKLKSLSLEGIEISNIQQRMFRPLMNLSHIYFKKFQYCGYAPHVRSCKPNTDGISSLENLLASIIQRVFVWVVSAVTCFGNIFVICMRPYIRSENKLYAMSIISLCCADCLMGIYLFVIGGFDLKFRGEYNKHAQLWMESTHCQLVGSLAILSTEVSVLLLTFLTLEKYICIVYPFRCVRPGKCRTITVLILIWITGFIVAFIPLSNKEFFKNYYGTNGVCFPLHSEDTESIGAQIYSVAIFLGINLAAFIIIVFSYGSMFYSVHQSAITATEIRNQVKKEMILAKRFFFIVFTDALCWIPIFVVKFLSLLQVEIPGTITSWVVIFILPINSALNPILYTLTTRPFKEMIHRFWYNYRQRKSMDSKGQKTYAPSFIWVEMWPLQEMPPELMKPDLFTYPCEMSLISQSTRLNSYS
Briefly: RXFP1 cyclic adenosine monophosphate (cAMP) assay, hRXFP1 HEK293. It counts as cell-based. The following applies: HEK293 cells stably expressing human RXFP1; 30 min at room temperature; HTRF cAMP. As to the method: RXFP1 Cyclic Adenosine Monophosphate (cAMP) Assays. Human embryonic kidney cells 293 (HEK293) cells and HEK293 cells stably expressing human RXFP1, were cultured in MEM medium supplemented with 10% qualified FBS, and 300 μg/ml hygromycin (Life Technologies). Cells were dissociated and suspended in assay buffer. The assay buffer was HBSS buffer (with calcium and magnesium) containing 20 mM HEPES, 0.05% BSA, and 0.5 mM IBMX. Cells (3000 cells per well, except 1500 cell per well for HEK293 cells stably expressing human RXFP1) were added to 384-well Proxiplates (Perkin-Elmer). Cells were immediately treated with test compounds in DMSO (2% final) at final concentrations in the range of 0.010 nM to 50 μM. Cells were incubated for 30 min at room temperature. The level of intracellular cAMP was determined using the HTRF HiRange cAMP assay reagent kit (Cisbio) according to manufacturer's instructions. Solutions of cryptate conjugated anti-cAMP and d2 fluorophore-labelled cAMP were made in a supplied lysis buffer separately. Upon completion of the reaction, the cells were lysed with equal volume of the d2-cAMP solution and anti-cAMP solution. After a 1 h room temperature incubation, time-resolved fluorescence intensity was measured using the Envision (Perkin-Elmer) at 400 nm excitation and dual emission at 590 nm and 665 nm. A calibration curve was constructed with an external cAMP standard at concentrations ranging from 2.7 μM to 0.1 μM by plotting the fluorescent intensity ratio from 665 nm emission to the intensity from the 590 nm emission against cAMP concentrations. The potency and activity of a compound to […] cAMP production was then determined by fitting to a 4-parametric logistic equation from a plot of cAMP level versus compound concentrations.
The examples disclosed below were tested in the human RXFP1 (hRXFP) HEK293 cAMP assay described above and found to have agonist activity. Tables 1-3, lists EC50 values in the hRXFP1 HEK293 cAMP assay measured for the examples.
Table A lists EC50 values in the hRXFP1 HEK293 cAMP assay measured for the examples.
(TR-FRET usually uses a lanthanide donor and a delayed reading to cut background.)
In general, EC50 refers to the concentration at which the effect is half-maximal. Read a low EC50 as higher potency in that assay. Molecule `COc1ccc(C2=NOC3CC(O)CC23)cc1C(=O)Nc1cc2nc(C)sc2cc1C(=O)Nc1ccc(F)c(C(F)(F)F)c1` (single isomer, unassigned) [Example 27, N-(4-fluoro-3-(trifluorometh-yl)phenyl)-5-(5-(5-hydroxy-3a,5,6,6a-tetra-hydro-4H-cyclopenta[d]isoxazol-3-yl)-2-methoxy-benzamido)-2-methylbenzo [d]thiazole-6-carboxamide] returned an EC50 of 2200 nM.
As for `COc1ccc(C#CC(C)(C)O)cc1C(=O)Nc1cc2c(cc1C(=O)Nc1ccc(F)c(C(F)(F)F)c1)OC(F)(F)O2` [Example 58, 2,2-difluoro-N-(4-fluoro-3-(trifluoromethyl)phenyl)-6-(5-(3-hydroxy-3-methylbut-1-yn-1-yl)-2-methoxybenzamido) benzo[d][1,3]dioxole-5-carboxamide], the figure is 1060 nM.
As for `COc1ccc(C2=NOC3CC(CO)CC23)cc1C(=O)Nc1cc2c(cc1C(=O)Nc1ccc(F)c(C(F)(F)F)c1)OC(F)(F)O2` (stereo not drawn) [Example 98], the figure is 1.3 nM.
With `COc1ccc(-c2cnc3n2CCN(CCO)C3)cc1C(=O)Nc1cc2c(cc1C(=O)Nc1ccc(F)c(C(F)(F)F)c1)OC(F)(F)O2` [Example 80, 2,2-difluoro-N-(4-fluoro-3-(trifluoromethyl)phenyl)-6-(5-(7-(2-hydroxyethyl)-5,6,7,8-tetrahydroimidazo[1,2-a]pyrazin-3-yl)-2-methoxybenzamido) benzo[d][1,3]dioxole-5-carboxamide], the 50% effective concentration (EC50) amounted to 260 nM. Against the preceding molecule, the EC50 is about 200-fold higher.
As for `COc1ccc(C2CCCN(S(C)(=O)=O)C2)cc1C(=O)Nc1cc2c(cc1C(=O)Nc1ccc(F)c(C(F)(F)F)c1)OC(F)(F)O2` (single isomer, unassigned) [Example 49, 2,2-difluoro-N-(4-fluoro-3-(trifluoromethyl)phenyl)-6-(2-methoxy-5-(1-(methylsulfonyl)piperidin-3-yl)benzamido)benzo[d][1,3]dioxole-5-carboxamide], the figure is 154 nM; as for `COc1ccc(C2=NOC3CN(C(=O)CO)CC23)cc1C(=O)Nc1cc2nc(C)sc2cc1C(=O)Nc1ccc(F)c(C(F)(F)F)c1` (stereo not drawn) [Example 5, N-(4-fluoro-3-(trifluorometh-yl)phenyl)-5-(5-(5-(2-hy-droxyacetyl)-3a,5,6,6a-tetra-hydro-4H-pyr-rolo[3,4-d]isoxazol-3-yl)-2-methoxy-benzamido)-2-methylbenzo [d]thiazole-6-carboxamide], 16 nM; as for `COc1ccc(C2=NOC3COCC23)cc1C(=O)Nc1cc2nc(C)sc2cc1C(=O)Nc1ccc(F)c(C(F)(F)F)c1` (stereo not drawn) [Example 3, N-(4-fluoro-3-(trifluorometh-yl)phenyl)-5-(2-methoxy-5-(3a,4,6,6a-tetrahydrofuro [3,4-d]isox-azol-3-yl)-benzamido)-2-methylbenzo [d]thiazole-6-carboxamide], 8.6 nM.
Molecule `COc1ccc(C2=NOC3CS(=O)(=O)CC23)cc1C(=O)Nc1cc2c(cc1C(=O)Nc1ccc(F)c(C(F)(F)F)c1)OC(F)(F)O2` (stereo not drawn) [Example 65, 6-(5-(5,5-dioxido-3a,4,6,6a-tetrahydrothieno[3,4-d]isoxazol-3-yl)-2-methoxybenzamido)-2,2-difluoro-N-(4-fluoro-3-(trifluoromethyl)phenyl) benzo[d][1,3]dioxole-5-carboxamide] gave a half-maximal effective concentration (EC50) of 285 nM.
Take `COc1ccc(C2=NOC3C4CC(C(=O)N4)C23)cc1C(=O)Nc1cc2nc(C)sc2cc1C(=O)Nc1ccc(F)c(C(F)(F)F)c1` (stereo not drawn) [Example 15, N-(4-fluoro-3-(trifluoro-methyl)phen-yl)-5-(2-meth-oxy-5-(5-oxo-3a,4,5,6,7,7a-hexahydro-4,7-methano-isoxazolo[5,4-c]pyridin-3-yl)benzami-do)-2-methyl-benzo[d]thi-azole-6-car-boxamide]: the response was half-maximal at 180 nM (EC50).
The molecule `COc1ccc(C2CC3(CNC3)C2)cc1C(=O)Nc1cc2c(cc1C(=O)Nc1ccc(F)c(C(F)(F)F)c1)OC(F)(F)O2` [Example 92, 2,2-difluoro-N-(4-fluoro-3-(trifluoromethyl)phenyl)-6-(2-methoxy-5-(2-azaspiro[3.3]heptan-6-yl)benzamido)benzo[d] [1,3]dioxole-5-carboxamide] registered an EC50 of 2640 nM.
The molecule `COc1ccc(N2CC(CN)CC2=O)cc1C(=O)Nc1cc2nc(C)sc2cc1C(=O)Nc1ccc(F)c(C(F)(F)F)c1` (stereo not drawn) [Example 21, 5-(5-(4-(ami-nomethyl)-2-oxopyrrolidin-1-yl)-2-meth-oxybenzami-do)-N-(4-fluoro-3-(tri-fluoromethyl)-phenyl)-2-methylbenzo [d]thiazole-6-carboxamide] had an EC50 of 4100 nM.
As for `COc1ccc(C2=NOC3CN(CC(C)(C)O)CC23)cc1C(=O)Nc1cc2c(cc1C(=O)Nc1ccc(F)c(C(F)(F)F)c1)OC(F)(F)O2` (stereo not drawn) [Example 45, 2,2-difluoro-N-(4-fluoro-3-(trifluoromethyl)phenyl)-6-(5-(5-(2-hydroxy-2-methylpropyl)-3a,5,6,6a-tetrahydro-4H-pyrrolo[3,4-d]isoxazol-3-yl)-2-methoxybenzamido)benzo[d][1,3]dioxole-5-carboxamide], the figure is 6 nM; as for `COc1ccc(N2CC(CO)CC2=O)cc1C(=O)Nc1cc2nc(C)sc2cc1C(=O)Nc1ccc(F)c(C(F)(F)F)c1` (stereo not drawn) [Example 13, N-(4-fluoro-3-(trifluorometh-yl)phenyl)-5-(5-(4-(hy-droxymethyl)-2-oxopyrroli-din-1-yl)-2-methoxybenz-amido)-2-methylbenzo [d]thiazole-6-carboxamide], 540 nM; as for `COc1ccc(C#CCO)cc1C(=O)Nc1cc2c(cc1C(=O)Nc1ccc(F)c(C(F)(F)F)c1)OC(F)(F)O2` [Example 59, 2,2-difluoro-N-(4-fluoro-3-(trifluoromethyl)phenyl)-6-(5-(3-hydroxyprop-1-yn-1-yl)-2-methoxybenzamido) benzo[d][1,3]dioxole-5-carboxamide], 41 nM.
To `COc1ccc(-c2cc([C@H](OC(=O)NC3CCC3)C(F)(F)F)ccc2F)cc1C(=O)Nc1cc2c(C)noc2cc1C(=O)Nc1ccc(F)c(C(F)(F)F)c1` [Example 32, (S)-2,2,2-trifluoro-1-(6-fluoro-3′-((6-((4-fluoro-3-(trifluoromethyl)phenyl)carbamoyl)-3-methylbenzo[d]isoxazol-5-yl)carbamoy])-4-methoxy-[1,1′-biphenyl]-3-yl)ethyl cyclobutylcarbamate] belongs 18 nM.
To `COc1ccc(C2=NOC3CS(=O)(=O)CC23)cc1C(=O)Nc1cc2nc(C)sc2cc1C(=O)Nc1ccc(F)c(C(F)(F)F)c1` (stereo not drawn) [Example 6, 5-(5-(5,5-diox-ido-3a,4,6,6a-tetrahydro-thieno[3,4-d]isoxazol-3-yl)-2-methoxy-benzamido)-N-(4-fluoro-3-(trifluorometh-yl)phenyl)-2-methylbenzo [d]thiazole-6-carboxamide] belongs 28 nM.
For the molecule `COc1ccc(C(=O)N2CC(C(C)(C)O)C2)cc1C(=O)Nc1cc2c(cc1C(=O)Nc1ccc(F)c(C(F)(F)F)c1)OC(F)(F)O2` [Example 38, 2,2-difluoro-N-(4-fluoro-3-(trifluoromethyl)phenyl)-6-(5-(3-(2-hydroxypropan-2-yl)azetidine-1-carbonyl)-2-methoxybenzamido) benzo[d][1,3]dioxole-5-carboxamide], the EC50 amounted to 84 nM.
Molecule `COc1ccc(C2=NOC3CC(N)CC23)cc1C(=O)Nc1cc2c(cc1C(=O)Nc1ccc(F)c(C(F)(F)F)c1)OC(F)(F)O2` (single isomer, unassigned) [Example 50, 6-(5-(5-amino-3a,5,6,6a-tetrahydro-4H-cyclopenta[d]isoxazol-3-yl)-2-methoxybenzamido)-2,2-difluoro-N-(4-fluoro-3-(trifluoromethyl)phenyl)benzo[d][1,3]dioxole-5-carboxamide] returned an EC50 of 98 nM.

Source of the values: US20250066344A1 (BRISTOL-MYERS SQUIBB COMPANY, priority 2021, published 2025).
